In PubChem BioAssay (NCI) one finds GI50 and TGI data, which are given here for 6 molecules.

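The compound was tested at five concentrations on cells cultured in 96-well plates, with a 48-hour exposure period. GI50 marks 50% less growth. At the TGI there is no net growth.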

Some test systems named below: SK-MEL-2 melanoma; A498 renal; HT29 colon; SN12C renal; TK-10 renal; MDA-MB-231 breast; SNB-75 CNS; HOP-92 NSCLC; SF-295 CNS; SF-539 CNS.
Assay in all cases: DTP human tumour cell line panel, 48 h

As a reminder, the GI50 is the concentration that inhibits growth by half. For orientation: TGI means the concentration giving total growth inhibition. Turning to `CC(=O)NC(CCc1ccc(Cl)c(Cl)c1)c1cccc(O)c(=O)c1` (stereo unspecified), the GI50 is 2.8 µM with SK-MEL-2 melanoma; 1.15 µM in the experiment on A498 renal; 0.784 µM with HT29 colon; 0.485 µM with SN12C renal; 0.864 µM with TK-10 renal; 0.709 µM with MDA-MB-231 breast. Also, the GI50 was 1.87 µM with SNB-75 CNS, 1.93 µM in the experiment on HOP-92 NSCLC, 0.399 µM with SF-295 CNS and 0.514 µM in the experiment with SF-539 CNS. The TGI in the experiment on SK-MEL-2 melanoma is 17.1 µM; with A498 renal, 25.8 µM; with HT29 colon, 22 µM; with SN12C renal, 13.1 µM; with TK-10 renal it was more than 100 µM; with MDA-MB-231 breast, 15.5 µM. Besides, the TGI in the experiment with SNB-75 CNS came out at 17.1 µM; in the experiment on HOP-92 NSCLC it was 15.7 µM; in the experiment on SF-295 CNS it was 10 µM; in the experiment on SF-539 CNS, 5.35 µM.

For the molecule `N=C1C(c2nc3ccccc3c(=O)[nH]2)=C(O)CN1c1cccc(Cl)c1`, the GI50 is more than 100 µM in the experiment on SK-MEL-2 melanoma; 1.9 µM in the experiment with A498 renal; 0.845 µM with HT29 colon; 19.2 µM with SN12C renal; 6.68 µM with TK-10 renal; more than 100 µM in the experiment on MDA-MB-231 breast. Also, the GI50 was 3.83 µM with SNB-75 CNS, more than 100 µM in the experiment with HOP-92 NSCLC, 3.23 µM in the experiment with SF-295 CNS and 3.51 µM with SF-539 CNS. The total growth inhibition concentration (TGI) in the experiment on SK-MEL-2 melanoma was more than 100 µM; in the experiment with A498 renal it was 17.1 µM; with HT29 colon it was more than 100 µM; in the experiment with SN12C renal, more than 100 µM; in the experiment with TK-10 renal, more than 50.6 µM; with MDA-MB-231 breast, more than 100 µM. Further, the TGI in the experiment on SNB-75 CNS is more than 100 µM; with HOP-92 NSCLC, more than 100 µM; with SF-295 CNS it was 17.8 µM; with SF-539 CNS, 24.8 µM.

For the molecule `Nc1ncc(-c2ccc3ncnc(N4CCc5cc(F)c(Cl)cc54)c3c2)cc1C=O`, the GI50 with SK-MEL-2 melanoma was 1.59 µM; in the experiment on A498 renal, 0.167 µM; with HT29 colon, 1.57 µM; with SN12C renal it was 1.05 µM; with TK-10 renal, 0.248 µM; in the experiment with MDA-MB-231 breast, 1.8 µM. For the same molecule, the GI50 in the experiment with SNB-75 CNS is 0.191 µM; in the experiment on HOP-92 NSCLC, 0.149 µM; with SF-295 CNS, 1.32 µM; in the experiment with SF-539 CNS, 2.38 µM. Besides, the total growth inhibition concentration (TGI) is 6.05 µM in the experiment on SK-MEL-2 melanoma; 0.758 µM in the experiment on A498 renal; more than 100 µM in the experiment with HT29 colon; more than 100 µM in the experiment with SN12C renal; 3.65 µM with TK-10 renal; more than 100 µM with MDA-MB-231 breast. Further, the total growth inhibition concentration (TGI) in the experiment on SNB-75 CNS is 2.77 µM; with HOP-92 NSCLC, 1.46 µM; in the experiment with SF-295 CNS, more than 27.9 µM; in the experiment with SF-539 CNS, more than 100 µM.

Turning to `Cn1ccc(S(=O)(=O)N2CCC[C@H](Nc3nccc(-c4c(-c5cccc(O)c5)nc5occn45)n3)C2)n1`, the GI50 was 0.444 µM in the experiment with SK-MEL-2 melanoma; 6.8 µM in the experiment with A498 renal; 0.732 µM with HT29 colon; 8.01 µM in the experiment on SN12C renal; 14.3 µM with TK-10 renal; 6.23 µM with MDA-MB-231 breast. For the same molecule, the GI50 is 1.9 µM with SNB-75 CNS, 7.64 µM in the experiment on HOP-92 NSCLC, 22.3 µM in the experiment with SF-295 CNS and 17 µM with SF-539 CNS. In addition, the TGI was 10.7 µM in the experiment with SK-MEL-2 melanoma; 26.1 µM in the experiment on A498 renal; 34.7 µM in the experiment on HT29 colon; 51.7 µM in the experiment with SN12C renal; 60.2 µM with TK-10 renal; more than 66.6 µM in the experiment on MDA-MB-231 breast. The total growth inhibition concentration (TGI) is more than 89 µM in the experiment on SNB-75 CNS, 52.9 µM in the experiment on HOP-92 NSCLC, 62.1 µM in the experiment on SF-295 CNS and 59.2 µM with SF-539 CNS.

Regarding `COc1cc(C2C=C(C)N=C3SC=C(C)N32)cc(OC)c1OC` (stereo unspecified), the GI50 with SK-MEL-2 melanoma was 2.04 µM; in the experiment with A498 renal, 2.39 µM; in the experiment on SN12C renal, 2.23 µM; in the experiment on TK-10 renal it was 2.22 µM; with MDA-MB-231 breast, 1.5 µM; with SNB-75 CNS, 4.3 µM. In addition, the GI50 was 2.08 µM in the experiment with HOP-92 NSCLC, 2.07 µM with SF-295 CNS and 0.353 µM in the experiment with SF-539 CNS. Moreover, the concentration for total growth inhibition (TGI) with SK-MEL-2 melanoma is 4.94 µM; in the experiment on A498 renal, 5.64 µM; with SN12C renal it was 7.53 µM; with TK-10 renal it was 5.61 µM; in the experiment with MDA-MB-231 breast it was 9.26 µM; in the experiment on SNB-75 CNS it was 20.1 µM. Moreover, the TGI in the experiment on HOP-92 NSCLC stood at 5.95 µM; in the experiment with SF-295 CNS, 6.19 µM; in the experiment on SF-539 CNS it was 4.6 µM.

`Cc1cc2c3c(nc4ccccc42)C(=O)c2cccnc2-c3n1`: the GI50 is 1.48 µM in the experiment with SK-MEL-2 melanoma; 0.966 µM in the experiment with A498 renal; 0.663 µM with HT29 colon; 0.146 µM in the experiment with SN12C renal; 0.644 µM in the experiment with MDA-MB-231 breast; 0.833 µM with SNB-75 CNS. Besides, the results for the GI50 with HOP-92 NSCLC, in the experiment on SF-295 CNS and with SF-539 CNS were 0.941 µM, 0.541 µM and 0.495 µM, respectively. The total growth inhibition concentration (TGI) with SK-MEL-2 melanoma is 3.82 µM; with A498 renal, 4.12 µM; in the experiment with HT29 colon it was 2.03 µM; in the experiment on SN12C renal, 1.82 µM; in the experiment on MDA-MB-231 breast, 5.56 µM; in the experiment with SNB-75 CNS, 3.09 µM. The total growth inhibition concentration (TGI) with HOP-92 NSCLC worked out at 8.52 µM; in the experiment on SF-295 CNS, 1.91 µM; with SF-539 CNS, 2.21 µM.
